Reference: article PMC12257542, “A Radiolabeled Photoswitchable G Protein-Coupled Receptor Antagonist Enlightens Ligand Binding Kinetics Associated with Photoswitching” (Journal of the American Chemical Society, 2025)
Like-named read-outs stand apart in the source and are kept apart here.

Assays:
H3R = H3R (Homo sapiens, UniProt Q9Y5N1); experiment: Functional H3R NanoBiT-PKA (cAMP sensor) assay in transiently transfected HEK293T cells; type: cell-based
[1] = Detailed photochemical characterization of 3f (1H NMR, UV-vis switching cycles); type: physicochemical
Method: Figure S10. Photochemical properties of 3f. (A) UV-vis spectra of 25 µM 3f in HBSS buffer containing 1% DMSO in the dark, after illumination to PSScis with 365 ± 10 nm for 2 min and after subsequent illumination to PSStrans with 506 ± 20 nm for 2 min. (B) Representative parts of LC−MS chromatograms of 3f in the dark, after illumination with 365 ± 10 nm for 300 s to reach PSScis and subsequently with 506 ± 20 nm for 300 s to reach PSStrans (full chromatograms […]
(C) Part of 1H NMR spectra of 10 mM 3f in DMSO-d6 (representing the two aromatic signals) in the dark, after illumination with 365 ± 10 nm for 600 s to reach PSScis and subsequently 506 ± 20 nm for 900 s to reach PSStrans (full spectra are shown in Figure S12). (D) Reversible isomerization cycles of 25 µM 3f in HBSS buffer containing 1% DMSO, repeatedly illuminated for 30 s with 365 ± 10 nm to reach PSScis and subsequently for […]
60 s with 506 ± 20 nm to reach PSStrans. […]
states in the 400-550 nm area (Figure S10A). This allows efficient trans-PSScis photoswitching in HBSS buffer using UV light (365 nm) and PSScis-PSStrans back-switching with green light (506 nm). LC-MS analysis (Figure S10B, S11) and, more quantitively, 1H NMR analysis (Figure S10C, S12) reveal high PSScis and PSStrans values for 3f (98% and >95% cis isomer for PSScis by LC-MS and 1H NMR analysis, respectively; 93% and 93% trans isomer for PSStrans by LC-MS and 1H NMR analysis, respectively). These analyses also confirmed that no photodecomposition occurs upon illumination with either 365 or 506 nm. Reversible isomerization cycles could be conducted in HBSS buffer without any photobleaching (Figure […]
S10D). […] Subsequently, the […]
UV−Vis spectra were recorded using a Thermo-scientific Evolution 201 PC spectrophotometer equipped with a thermostated cell holder set at 20 °C. […] The light intensity used for the lambda 10-3 optical filter is 0.93 mW/mm2 using the 360 ± 20 nm filter, 0.79 mW/mm2 for the 434 ± 9 nm filter, 0.77 mW/mm2 for the 494 ± 9 nm filter as measured using a Thorlabs PM16−401 power meter. […]

Chain of H3R (Q9Y5N1 whole entry): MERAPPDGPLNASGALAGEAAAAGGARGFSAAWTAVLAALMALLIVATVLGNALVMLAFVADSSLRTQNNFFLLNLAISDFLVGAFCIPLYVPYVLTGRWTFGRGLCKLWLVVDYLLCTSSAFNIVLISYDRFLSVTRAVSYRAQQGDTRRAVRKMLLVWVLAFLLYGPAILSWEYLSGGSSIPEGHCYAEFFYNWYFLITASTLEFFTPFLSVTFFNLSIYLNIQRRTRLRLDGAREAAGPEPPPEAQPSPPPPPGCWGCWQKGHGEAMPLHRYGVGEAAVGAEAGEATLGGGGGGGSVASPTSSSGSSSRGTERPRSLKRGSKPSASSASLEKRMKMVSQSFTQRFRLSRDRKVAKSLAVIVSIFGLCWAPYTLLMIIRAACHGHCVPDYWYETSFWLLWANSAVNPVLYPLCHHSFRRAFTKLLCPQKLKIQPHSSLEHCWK

- block of the H3R agonist response (H3R; 100 nM trans-3f preincubated, 10 nM immethridine, dark): approximately 80%
- reversal of the response, % of the maximal agonist response (H3R; 100 nM trans-3f, 10 nM immethridine, after 365 nm LED light 10 min, 2 mW): approximately 80%
- IC50 (H3R; 365 nm 10 min (second cycle), 10 nM immethridine, read-out: pIC50, dynamic trans-3f switching step 4 (converted)): 398 nM
- IC50 (H3R; 365 nm 10 min, 10 nM immethridine, read-out: pIC50, dynamic trans-3f switching step 2 (converted)): 794 nM
- IC50 (H3R; 500 nm 10 min (second cycle), 10 nM immethridine, read-out: pIC50, dynamic trans-3f switching step 5 (converted)): 50.1 nM
- IC50 (H3R; 500 nm 10 min, 10 nM immethridine, read-out: pIC50, dynamic trans-3f switching step 3 (converted)): 50.1 nM
- IC50 (H3R; PSS cis (pre-illuminated trans-3f), competition with 10 nM immethridine, 15 min incubation, read-out: pIC50 3f-PSScis (converted)): 398 nM
- IC50 (H3R; no irradiation (dark), 10 nM immethridine, read-out: pIC50, dynamic trans-3f switching step 1 (converted)): 20 nM
- IC50 (H3R; trans isomer, competition with 10 nM immethridine, 15 min incubation, read-out: pIC50 trans-3f (converted)): 31.6 nM
- Fold IC50 shift (H3R; trans-3f versus 3f-PSS cis): 12.6 fold
- PSScis (% cis isomer) by 1H NMR ([1]; 10 mM in DMSO-d6, 365 ± 10 nm for 600 s): > 95%
- PSStrans (% trans isomer) by 1H NMR ([1]; 10 mM in DMSO-d6, 506 ± 20 nm for 900 s): 93%
- photodecomposition upon illumination ([1]; illumination with either 365 or 506 nm, LC-MS and 1H NMR): no
Structure (SMILES): Cc1nn(C2CCN(C)CC2)c(C)c1/N=N/c1ccc(O[C@H]2C[C@H](N3CCCCC3)C2)cc1 [Compound 3f]
